Results from patent publication US20250346585A1 (Alexion Pharmaceuticals, Inc., priority 2022, published 2025).
pIC50: −log10 of the molar value. Like-named read-outs stand apart in the source and are kept apart here.

Target: Human complement C1s enzyme (Homo sapiens (Human), UniProt P09871)
Assay: Human C1s enzyme assay
Assay type: biochemical
Settings: read-out: IC50 (Stars)
Method: Human complement C1s enzyme (purified from human serum, Complement Technology, Inc.) at 1.16 nM final concentration was incubated with test compound at various concentrations for 5 min at room temperature in 50 mM Tris, 1 M NaCl, pH 7.5. A synthetic substrate Z-L-Lys-SBzl and DTNB (Ellman's reagent) were added to final concentrations of 100 μM each. Absorbance at 405 nm (A405) was recorded at 30 second intervals for 30 min using a microplate spectrophotometer. IC50 values were calculated by nonlinear regression of complement C1s reaction rates as a function of test compound concentration.

[1] = Human complement C1s enzyme 1.16 nM, substrate Z-L-Lys-SBzl 100 μM, assay of Example 3
[2] = Human C1s enzyme assay of Example 3

Sequence of Human complement C1s enzyme (P09871 438-688 limits assumed): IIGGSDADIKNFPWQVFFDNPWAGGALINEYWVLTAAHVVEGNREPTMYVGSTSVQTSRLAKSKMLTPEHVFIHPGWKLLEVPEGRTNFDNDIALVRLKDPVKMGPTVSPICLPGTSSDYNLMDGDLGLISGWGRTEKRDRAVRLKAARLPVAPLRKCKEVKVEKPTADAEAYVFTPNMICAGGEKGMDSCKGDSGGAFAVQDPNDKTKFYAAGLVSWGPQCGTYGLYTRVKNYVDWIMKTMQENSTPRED
Sequence of Human complement C1s enzyme (P09871 16-437 partner limits assumed): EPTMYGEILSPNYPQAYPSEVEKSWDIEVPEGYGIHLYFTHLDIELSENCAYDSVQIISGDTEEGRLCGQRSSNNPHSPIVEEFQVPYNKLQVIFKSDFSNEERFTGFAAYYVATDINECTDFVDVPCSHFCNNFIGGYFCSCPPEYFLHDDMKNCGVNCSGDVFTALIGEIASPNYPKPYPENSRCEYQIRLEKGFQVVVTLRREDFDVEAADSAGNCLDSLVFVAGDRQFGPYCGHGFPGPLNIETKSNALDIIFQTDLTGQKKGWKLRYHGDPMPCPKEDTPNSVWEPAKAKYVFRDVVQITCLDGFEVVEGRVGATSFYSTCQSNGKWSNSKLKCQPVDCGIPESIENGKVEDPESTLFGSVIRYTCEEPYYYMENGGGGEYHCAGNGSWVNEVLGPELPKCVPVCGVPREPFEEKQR

pIC50 [1] | pIC50 [2] | SMILES
> 7.00 | – | COC[C@@]1(F)C[C@@H](C(=O)N[C@H](C)c2cc(C(=N)N)cs2)N(C(=O)CNC(=O)c2ccc3c(c2)oc2ccccc23)C1 [Compound 360, (2S,4R)—N—((R)-1-(4-carbamimidoylthiophen-2-yl)ethyl)-1-((dibenzo[b,d]furan-3-carbonyl)glycyl)-4-fluoro-4-(methoxymethyl)pyrrolidine-2-carboxamide]
– | > 7.00 | C[C@@H](NC(=O)[C@@H]1CC2(CN1C(=O)CNC(=O)c1ccc3c(c1)-c1ccccc1C3)OCCO2)c1cc(C(=N)N)cs1 [Compound 111, (S)-7-((9H-fluorene-3-carbonyl)glycyl)-N—((R)-1-(4-carbamimidoylthiophen-2-yl)ethyl)-1,4-dioxa-7-azaspiro[4.4]nonane-8-carboxamide]
> 7.00 | – | Cc1ccc(-c2cccc(C(=O)NCC(=O)N3C[C@H](S(C)(=O)=O)C[C@H]3C(=O)N[C@H](C)c3cc(C(=N)N)cs3)c2)cc1 [Compound 335, (2S,4R)—N—((R)-1-(4-carbamimidoylthiophen-2-yl)ethyl)-1-((4′-methyl-[1,1′-biphenyl]-3-carbonyl)glycyl)-4-(methylsulfonyl)pyrrolidine-2-carboxamide]
– | > 7.00 | CC(C)c1ccc(Oc2ccc(C(=O)NCC(=O)N3C[C@H](OC(F)F)C[C@H]3C(=O)N[C@H](C)c3cc(C(=N)N)cs3)cc2)cc1 [Compound 47, (2S,4R)—N—((R)-1-(4-carbamimidoylthiophen-2-yl)ethyl)-4-(difluoromethoxy)-1-((4-(4-isopropylphenoxy)benzoyl)glycyl)pyrrolidine-2-carboxamide]
– | > 7.00 | Cc1ccccc1[C@H]1C[C@@H](C(=O)N[C@H](C)c2cc(C(=N)N)cs2)N(C(=O)CNC(=O)c2ccc(Oc3ccc(F)cc3)cc2)C1 [Compound 59, (2S,4R)—N—((R)-1-(4-carbamimidoylthiophen-2-yl)ethyl)-1-((4-(4-fluorophenoxy)benzoyl)glycyl)-4-(o-tolyl)pyrrolidine-2-carboxamide]
> 7.00 | – | COC[C@@]1(F)C[C@@H](C(=O)N[C@H](C)c2cc(C(=N)N)cs2)N(C(=O)CNC(=O)c2ccc3c(c2)Oc2ccccc2S3)C1 [Compound 373, (2S,4R)—N—((R)-1-(4-carbamimidoylthiophen-2-yl)ethyl)-4-fluoro-4-(methoxymethyl)-1-((phenoxathiine-3-carbonyl)glycyl)pyrrolidine-2-carboxamide]
> 7.00 | – | N=C(N)c1csc(CNC(=O)[C@@H]2CC3(CN2C(=O)CNC(=O)c2ccc(-c4ccc(F)c(C(=O)O)c4)cc2)OCCO3)c1 [Compound 212, (S)-4′-((2-(8-(((4-carbamimidoylthiophen-2-yl)methyl)carbamoyl)-1,4-dioxa-7-azaspiro[4.4]nonan-7-yl)-2-oxoethyl)carbamoyl)-4-fluoro-[1,1′-biphenyl]-3-carboxylic acid]
< 6.00 | – | NCCCCNc1csc(CNC(=O)[C@@H]2CC3(CN2C(=O)CNC(=O)c2ccc(Oc4ccc(F)cc4)cc2)OCCO3)c1 [Compound 318, (S)-N-((4-((4-aminobutyl)amino)thiophen-2-yl)methyl)-7-((4-(4-fluorophenoxy)benzoyl)glycyl)-1,4-dioxa-7-azaspiro[4.4]nonane-8-carboxamide]
– | > 7.00 | Cc1ccc(-c2ccc(C(=O)NCC(=O)N3CC4(C[C@H]3C(=O)N[C@H](C)c3cc(C(=N)N)cs3)OCCO4)cc2)cc1 [Compound 126, (S)—N—((R)-1-(4-carbamimidoylthiophen-2-yl)ethyl)-7-((4′-methyl-[1,1′-biphenyl]-4-carbonyl)glycyl)-1,4-dioxa-7-azaspiro[4.4]nonane-8-carboxamide]
> 7.00 | – | N=C(N)c1csc(CNC(=O)[C@@H]2CC3(CN2C(=O)CNC(=O)c2ccc(-c4ccc(F)cc4F)o2)OCCO3)c1 [Compound 298, (S)—N-((4-carbamimidoylthiophen-2-yl)methyl)-7-((5-(2,4-difluorophenyl)furan-2-carbonyl)glycyl)-1,4-dioxa-7-azaspiro[4.4]nonane-8-carboxamide]
> 7.00 | – | C[C@@H](NC(=O)[C@@H]1C[C@H](C(F)(F)F)CN1C(=O)CNC(=O)c1ccc2c(c1)-c1ccccc1C2(F)F)c1cc(C(=N)N)cs1 [Compound 322, (2S,4S)—N—((R)-1-(4-carbamimidoylthiophen-2-yl)ethyl)-1-((9,9-difluoro-9H-fluorene-3-carbonyl)glycyl)-4-(trifluoromethyl)pyrrolidine-2-carboxamide]
– | > 7.00 | COC[C@@]1(F)C[C@@H](C(=O)N[C@H](C)c2cc(C(=N)N)cs2)N(C(=O)CNC(=O)c2ccc(Oc3ccc(C(F)(F)F)cc3)cc2)C1 [Compound 18, (2S,4R)—N—((R)-1-(4-carbamimidoylthiophen-2-yl)ethyl)-4-fluoro-4-(methoxymethyl)-1-((4-(4-(trifluoromethyl)phenoxy)benzoyl)glycyl)pyrrolidine-2-carboxamide]
> 7.00 | – | N=C(N)c1csc(CNC(=O)[C@@H]2CC3(CN2C(=O)CN2Cc4cc(-c5ccccc5)ccc4C2=O)OCCO3)c1 [Compound 231, (S)—N-((4-carbamimidoylthiophen-2-yl)methyl)-7-(2-(1-oxo-5-phenylisoindolin-2-yl)acetyl)-1,4-dioxa-7-azaspiro[4.4]nonane-8-carboxamide]
– | 6.00 to 7.00 | C[C@@H](NC(=O)[C@@H]1CC2(CN1C(=O)CNC(=O)c1ccc3c(c1)-c1ccccc1C3(F)F)OCCO2)c1cc(-c2c[nH]cn2)cs1 [Compound 96, (S)—N—((R)-1-(4-(1H-imidazol-4-yl)thiophen-2-yl)ethyl)-7-((9,9-difluoro-9H-fluorene-3-carbonyl)glycyl)-1,4-dioxa-7-azaspiro[4.4]nonane-8-carboxamide]
– | > 7.00 | COC[C@@]1(F)C[C@@H](C(=O)N[C@H](C)c2cc(C(=N)N)cs2)N(C(=O)CNC(=O)c2ccc(C(F)(F)c3ccccc3)cc2)C1 [Compound 136, (2S,4R)—N—((R)-1-(4-carbamimidoylthiophen-2-yl)ethyl)-1-((4-(difluoro(phenyl)methyl)benzoyl)glycyl)-4-fluoro-4-(methoxymethyl)pyrrolidine-2-carboxamide]
– | > 7.00 | COC[C@@H]1C[C@@H](C(=O)N[C@H](C)c2cc(C(=N)N)cs2)N(C(=O)CNC(=O)c2ccc(Oc3ccc(F)cc3)cc2)C1 (relative stereo) [Compound 79, (2S,4R*)—N—((R)-1-(4-carbamimidoylthiophen-2-yl)ethyl)-1-((4-(4-fluorophenoxy)benzoyl)glycyl)-4-(methoxymethyl)pyrrolidine-2-carboxamide]
> 7.00 | – | C[C@@H](NC(=O)[C@@H]1C[C@@H](S(C)(=O)=O)CN1C(=O)CNC(=O)c1ccc2cc3ccccc3cc2c1)c1cc(C(=N)N)cs1 [Compound 239, (2S,4R)-1-((anthracene-2-carbonyl)glycyl)-N—((R)-1-(4-carbamimidoylthiophen-2-yl)ethyl)-4-(methylsulfonyl)pyrrolidine-2-carboxamide]
> 7.00 | – | N=C(N)c1csc([C@@H](NC(=O)[C@@H]2CC3(CN2C(=O)CNC(=O)c2ccc4c(c2)-c2ccccc2C4(F)F)OCCO3)C(F)(F)F)c1 (relative stereo) [Compound 275, (S)—N—((S*)-1-(4-carbamimidoylthiophen-2-yl)-2,2,2-trifluoroethyl)-7-((9,9-difluoro-9H-fluorene-3-carbonyl)glycyl)-1,4-dioxa-7-azaspiro[4.4]nonane-8-carboxamide]
– | > 7.00 | C[C@@H](NC(=O)[C@@H]1C[C@H](C2CCCCC2)CN1C(=O)CNC(=O)c1ccc2c(c1)-c1ccccc1C2(F)F)c1cc(C(=N)N)cs1 [Compound 98, (2S,4R)—N—((R)-1-(4-carbamimidoylthiophen-2-yl)ethyl)-4-cyclohexyl-1-((9,9-difluoro-9H-fluorene-3-carbonyl)glycyl)pyrrolidine-2-carboxamide]
< 6.00 | – | CS(=O)(=O)N(c1csc(CNC(=O)[C@@H]2CC3(CN2C(=O)CNC(=O)c2ccc(Oc4ccc(F)cc4)cc2)OCCO3)c1)S(C)(=O)=O [Compound 286, (S)-7-((4-(4-fluorophenoxy)benzoyl)glycyl)-N-((4-((N-(methylsulfonyl)methyl)sulfonamido)thiophen-2-yl)methyl)-1,4-dioxa-7-azaspiro[4.4]nonane-8-carboxamide]
> 7.00 | – | C[C@@H](NC(=O)[C@@H]1C[C@@H](OC(F)F)CN1C(=O)CNC(=O)c1ccc2c(c1)C(C)(C)c1ccccc1-2)c1cc(C(=N)N)cs1 [Compound 348, (2S,4R)-N-((R)-1-(4-carbamimidoylthiophen-2-yl)ethyl)-4-(difluoromethoxy)-1-((9,9-dimethyl-9H-fluorene-2-carbonyl)glycyl) pyrrolidine-2-carboxamide]
– | > 7.00 | COC[C@@]1(F)C[C@@H](C(=O)NCc2ccc(C(=N)N)s2)N(C(=O)CNC(=O)c2ccc(Oc3ccc(F)cc3)cc2)C1 [Compound 68, (2S,4R)—N-((5-carbamimidoylthiophen-2-yl)methyl)-4-fluoro-1-((4-(4-fluorophenoxy)benzoyl)glycyl)-4-(methoxymethyl)pyrrolidine-2-carboxamide]
> 7.00 | – | COC[C@@]1(F)C[C@@H](C(=O)N[C@H](C)c2cc(C(=N)N)cs2)N(C(=O)CNC(=O)c2ccc3cc4ccccc4cc3c2)C1 [Compound 224, (2S,4R)-1-[2-(anthracen-2-ylformamido)acetyl]-N-[(1R)-1-(4-carbamimidoylthiophen-2-yl)ethyl]-4-fluoro-4-(methoxymethyl)pyrrolidine-2-carboxamide]
– | < 6.00 | NS(=O)(=O)c1cncc(-c2csc(CNC(=O)[C@@H]3CC4(CN3C(=O)CNC(=O)c3ccc(Oc5ccc(F)cc5)cc3)OCCO4)c2)c1 [Compound 143, (S)-7-((4-(4-fluorophenoxy)benzoyl)glycyl)-N-((4-(5-sulfamoylpyridin-3-yl)thiophen-2-yl)methyl)-1,4-dioxa-7-azaspiro[4.4]nonane-8-carboxamide]
